Experimental data taken from US20070172912A1, “Method for fluorescently staining tissue” (PENTAX Corporation, priority 2006, published 2007).

Tested on: slices of the large intestines
Experiment: Degree of permeation of staining solution in slices of large intestines, varying pH
Design: species or system rat
Conditions: 0.1 mg/mL, pH 4.0, 5.0, 6.0, 7.0 and saline
Description: Slices of the large intestines used in Example 4 were observed, and the degree of permeation of a staining solution was observed. Fluorescein sodium was adjusted to 0.1 mg/mL in the same way as in Example 4 by dilution with solutions with pH 4.0, 5.0, 6.0, and 7.0 and a saline. Imaging was performed with a fluorescence microscope (manufactured by ZEISS, LSM510) under imaging conditions including a pinhole diameter of 1.0 and Max, and 20× and 40× lenses were used.

- difference in the degree of permeation into the tissues between staining solutions with varying pH: no significant difference
Compound: O=C1OC2(c3ccc(O)cc3Oc3cc(O)ccc32)c2ccccc21 [F—Na, fluorescein sodium]
